According to patent US20200038514A1, “FOLATE CONJUGATE FOR USE IN TARGETING TUMOR ASSOCIATED MACROPHAGES” (ENDOCYTE, INC., priority 2016, published 2020):

Assays:
folate receptor = biological target: T1, folate receptor (Homo sapiens, UniProt P15328); test: Relative affinity assay ([3H]FA displacement on KB cells); format: binding
T1 construct: FR-positive KB cells were seeded in 24-well Falcon plates and allowed to form adherent monolayers; endogenous in cells; host or cells: KB cells
Description: FR-positive KB cells were seeded in 24-well Falcon plates and allowed to form adherent monolayers (>90% confluent) overnight in FFRPMI/HIFCS. Spent incubation medium was replaced with FFRPMI supplemented with 10% HIFCS and containing 100 nmol/L of [^3H]FA in the absence and presence of increasing concentrations of unlabeled FA or the test conjugate. Cells were incubated for 1 hour at 37° C. and then rinsed thrice with 0.5 mL PBS. Five hundred microliters of 1% SDS in PBS were added to each well; after 5 min, cell lysates were collected, transferred to individual vials containing 5 mL of scintillation cocktail, and then counted for radioactivity.
Cells exposed to only the [^3H]FA in FFRPMI (no competitor) were designated as negative controls, whereas cells exposed to the [^3H]FA plus 1 mmol/L unlabeled FA served as positive controls. Disintegrations per minute (DPM) measured in the latter samples (representing nonspecific binding of label) were subtracted from the DPM values from all samples.

TNBC PDX tumor = test: In vivo activity against triple negative breast tumors (FIG. 10); parameters: species or system mice; conditions: Conjugate 5 0.27 μmol/kg BIW two weeks; erubulin mesylate 1.0 μmol/kg SIW two weeks
Description: Mice were maintained and tumor volumes were measures according to Method 3.
Primary human TNBC model ST502 (2-4 mm in diameter) or primary human TNBC model ST738 (2-4 mm in diameter) were inoculated subcutaneously at the right flank of each mouse. Mice were randomized into experimental groups of 7 mice each and test articles were injected through the lateral tail vein under sterile conditions in a volume of […] of phosphate-buffered saline (PBS).

IGROV1 cells = test: Clonogenic assay, IGROV1; format: cell-based, human; conditions: 2 hour exposure, 9-day chase
Description: IGROV1 cells seeded in 6-well plates (1000 cells/well) were exposed for 2 hours to Conjugate 5 at 1, 10, and 100 nM and followed by a 9-day chase in drug-free medium. Afterwards, the cells were washed with PBS and fixed for 5 minutes in a 3:1 methanol:acetic acid solution. The cells were then stained with 0.5% crystal violet/methanol solution for 15 minutes and washed with tap water. After a drying step, the colonies were photographed and counted using the ImageJ software.
Afterwards, the cells were washed with PBS and fixed for 5 minutes in a 3:1 methanol:acetic acid solution. The cells were then stained with 0.5% crystal violet/methanol solution for 15 minutes and washed with tap water. After a drying step, the colonies were photographed and counted using the ImageJ software.

[1] = test system: intraperitoneal ID8-C115 tumor; test: Conjugate 5 plus anti-CTLA-4 combination study, survival; format: in vivo, mice; conditions: Conjugate 5 i.v. 0.1 μmol/kg BIW×6 doses; EC1456 i.v. 2 μmol/kg BIW×6 doses, from day 7; anti-CTLA-4 i.p. 250 μg/dose BIW×5 doses from day 11; untreated ~46 days; 5 animals
Description: To test the effect of Conjugate 5 alone and in combination with anti-CTLA-4 antibody, ID8-C115 tumor cells (5×10^6 cells per animal in 1% syngeneic mouse serum/folate-deficient RPMI1640 medium) were inoculated intraperitoneally 13 days post the date of arrival and start of the folate deficient diet. […] The anti-CTLA-4 antibody dosing solution was prepared by diluting the stock solution (BioXcell, Clone UC10-4F10-11) to 1.25 mg/mL in PBS, pH 7.4. Anti-CTLA-4 (250 μg/dose) was i.p. administered BIW for a total of 5 doses starting 11 days after the tumor implant. […] Mice were weighed 3 times/week and assessed for any clinical sign of swollen bellies indicative of ascites formation and for the evidence of toxicity such as respiratory distress, mobility, weight loss, diarrhea, hunched posture, and failure to eat. Once the animals developed ascites, they were monitored daily and euthanized when ascites became severe (rounded and walking on tip toes). Healthy animals from the same cohort of mice were used as controls for normal weight gain.

4T1-C12 tumor cells = test: XTT cell viability assay, 4T1-C12; format: cell-based, mouse; conditions: FRα-positive 4T1-C12, 2 hours exposure, 96 hour chase
Description: (§1) The FRα− and FRα+ expressing cell lines utilized to evaluate Conjugate 5 activity in-vitro and/or ex-vivo studies were (1) 4T1p, a mouse breast cancer cell line that resembles triple negative breast cancer in humans, (2) 4T1-C12, 4T1p stably transfected with a mouse FRa, and (3) IGROV1, a human ovarian carcinoma cell line that expresses the human FRα. 4T1p and 4T1-C12 cells were grown respectively in a folate-replete or folate-free RPMI1640 medium (Gibco BRL) (FFRPMI) containing 10% heat-inactivated fetal calf serum (HIFCS) and antibiotics, and maintained under a 5% CO2 atmosphere using standard cell culture techniques. IGROV1 cells were grown in the same medium as 4T1-C12.
(§2) 4T1p and 4T1-C12 tumor cells in 96-well plates (20,000 cells/well) were treated with 10-fold serial dilutions of Conjugate 5 (100 nM) in FFRPMI medium. After a 2 hour exposure, the drug-containing media were replaced and the cells were washed and allowed to incubate further for 96 hours. The cell viability was assessed by adding XTT (2,3-bis(2-methoxy-4-nitro-5-sulfo-phenyl)-2H-tetrazolium-5-carboxanilide) to the culture medium for 2 hours following the manufacturer's instructions. All results were expressed as % absorbance (minus background) relative to the untreated control cells.

4T1p tumor cells = test: XTT cell viability assay, 4T1p; format: cell-based, mouse; conditions: 2 hours exposure up to 100 nM, 96 hour chase
Description: as §1, §2

T1 sequence (P15328 25-234): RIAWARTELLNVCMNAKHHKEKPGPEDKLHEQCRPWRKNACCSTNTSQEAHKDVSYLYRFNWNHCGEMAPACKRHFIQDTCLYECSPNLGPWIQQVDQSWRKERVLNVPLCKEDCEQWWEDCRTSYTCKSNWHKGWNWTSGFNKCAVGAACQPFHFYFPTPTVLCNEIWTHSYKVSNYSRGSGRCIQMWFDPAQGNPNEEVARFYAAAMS

C=C1C[C@H]2C=Nc3cc(OCCCCCOc4cc(N)c(C(=O)N5CC(=C)C[C@H]5C5OCCN5C(=O)OCC(C)(C)SSCCC(=O)NCCNC(=O)CCOCCOCCOCCOCCNC(=O)CCN5C(=O)CC(SC[C@H](NC(=O)[C@H](CC(=O)O)NC(=O)[C@H](CC(=O)O)NC(=O)[C@H](CCCNC(=N)N)NC(=O)[C@H](CC(=O)O)NC(=O)CC[C@H](NC(=O)c6ccc(NCc7cnc8nc(N)[nH]c(=O)c8n7)cc6)C(=O)O)C(=O)O)C5=O)cc4OC)c(OC)cc3C(=O)N2C1 (stereo partly drawn) [Conjugate 5]
relative binding affinity toward the folate receptor, fold lower than that of folic acid (folate receptor): ~1.9 fold
TNBC PDX tumor size compared to untreated control (TNBC PDX tumor): decreased TNBC PDX tumor size
clonogenic activity (IGROV1 cells; 1, 10, 100 nM): potent activity at all concentrations
clonogenic activity, comparison Conjugate 5 and EC1456 (IGROV1 cells; 1, 10, 100, 1000 nM): potent activity at all concentrations tested
clonogenic anti-tumor activity in the presence of excess folic acid (IGROV1 cells; 1 and 10 nM, excess folic acid): significantly reduced
median survival time [1]: ~77 days post tumor implant
activity in the presence of excess folic acid (4T1-C12 tumor cells; excess folic acid): partially reversible
IC50 (4T1-C12 tumor cells; read-out: relative IC50, inhibition of cell proliferation): ~8.7 nM
activity against FRα-negative 4T1p tumor cell in-vitro (4T1p tumor cells): completely inactive
